{"source": "patent US8507506B2", "about": "“Theophylline derivative inhibits osteoporosis” (Kaohsiung Medical University, priority 2011, dated 2013)", "type_in_all_cases": "cell-based", "key": {"[1]": {"test_system": "c-Src mRNA in RAW264.7 cells", "test": "RT-PCR, RANKL-induced mRNA expression of c-Src", "conditions": "for RANKL-induced mRNA expression level of c-Src: RAW264.7 cells, 24 hours, CTL 100%, mean ± SEM", "from_the_text": "The culture medium was discarded. […] [table] f) Running • A."}, "[2]": {"test_system": "NFATc1 protein in RAW264.7 cells", "test": "Western blot, expression of NFATc1 induced by RANKL", "conditions": "5 μM, 7.5 μM and 10 μM, RANKL 24 hours, FIG. 13", "procedure": "The proteins were collected by scraping and were centrifuged (13,000 rpm, 4° C., 30 minutes). The supernatant was stored in an eppendorf in −80° C. • c) Concentrations of the proteins were examined by Bio-Red DC Protein Assay. After knowing the concentrations, the proteins were diluted to specific concentrations by adding ddH2O. One forth volume of the diluted proteins of sample buffer was added into the diluted proteins and was put in boiled water for 5 min and then was chilled on ice for 5 minutes. After short time centrifugation, the diluted proteins could be injected into wells of a gel. The gel was run at 100 V for 10 minutes until the proteins were driven to the intersection between a loading gel and a running gel. Then, the voltage was swopped to 200 V for 40 minutes. • d) A PVDF membrane was immersed in Methanol for 2 minutes. After two washes in ddH2O, the membrane was immersed in transfer buffer for 15 minutes. A SDS-PAGE was put on the membrane, and wet paper was flanked them. The proteins were transferred to the PVDF membrane using a semi-dry transfer at 20 V for 30 minutes. • e) The band of the PVDF membrane was trimmed and was added by suitable amount of blocking buffer (5% skim milk in washing buffer) and then was shaken for 1 hour in room temperature to block non specific bindings. Then, the band was covered by a diluted 1° antibody overnight in 4° C. […]"}, "[3]": {"test_system": "HMGB1 in RAW264.7 cells", "test": "Western blot, RANKL-induced transfer of HMGB1 from nucleus to extracellular space", "conditions": "5 μM, 7.5 μM and 10 μM for 24 hours, 10 ng/ml RANKL 18 hours, dose dependent, FIGS. 22(B), 23(B), 24(B)", "procedure": "HMGB1 can affect the proliferation and differentiation of osteoclasts, the HMGB1 which originally exists in a cell nuclear is stimulated by RANKL to transfer to cytoplasm or extracellular space, and the HMGB1 in the extracellular space like pro-inflammatory cytokines can regulate the proliferation and differentiation of osteoclasts via RANK/RANKL pathway or other pathways. 10 ng/ml RANKL is used to stimulate RAW264.7 cells, and the extracellular medium, cytoplasm and nucleus are separated at 0 hours, 6 hours, 12 hours, 18 hours and 24 hours, and then via western blot to confirm the expression level of the HMGB1. After stimulating 24 hours, the HMGB1 obviously transfers to the extracellular space from the nucleus and the cytoplasm (FIGS. 22(A), 23(A), and 24(A)). Moreover, when it is stimulated by RANKL for 18 hours, the effect of transferring to the extracellular space and the cytoplasm is most obvious. Different concentrations of KMUP-1 are administrated for 24 hours, and 10 ng/ml RANKL is used to stimulate for 18 hours. […] Nuclear proteins were extracted according to the instructions of NE-PER kit. 2.5×10^6 cells were plated per well in 24-well plates. […] Subsequently, the cells were added by 5.5 μ[…] and shaken for 5 seconds and then put on ice for 1 minute. After that, the cells were shaken again for 5 seconds and centrifuged (10,000 rpm, 4° C., 5 minutes). […]"}, "[4]": {"test_system": "IL-10 secretion by RAW264.7 cells", "test": "ELISA, amount of IL-10", "conditions": "RAW264.7, ELISA, increasing dose, FIG. 7(B)", "procedure": "Under RANKL stimulation, mononuclear RAW264.7 cells can secrete pro-inflammatory cytokines such as TNF-α, IL-1, IL-6, etc. ELISA is used to measure that KMUP-1 influences RANKL to induce the secretion of pro-inflammatory cytokines. […] 10^5 cells were plated per well in 24-well plates. […] After 24 hours reaction, the reaction fluid was centrifuged (13,000 rpm, 4° C., 20 minutes), and then the supernatant was tasted by ELISA kit (R&D system and eBioscience™) to detect the amount of TNF-α, IL-1β, IL-6, and IL-10. The experimental process is followed with the instructions of the kit."}}}
{"smiles": "Cn1c(=O)c2c(ncn2CCN2CCN(c3ccccc3Cl)CC2)n(C)c1=O", "note": "[KMUP-1, 7-[2-[4-(2-Chlorophenyl)piperazin-1-yl]ethyl] theophylline]", "values": [{"measurement": "effect on mRNA expression of c-Src induced by RANKL (in words)", "setting": "[1]; 10 ng/ml RANKL, summary of Table 1", "value": "not obviously inhibits"}, {"measurement": "RANKL-induced mRNA expression level of c-Src", "setting": "[1]; RANKL 10 ng/ml + KMUP-1 1 μM", "value": "101.4 ± 4.5", "unit": "%"}, {"measurement": "RANKL-induced mRNA expression level of c-Src", "setting": "[1]; RANKL 10 ng/ml + KMUP-1 2.5 μM", "value": "103.9 ± 2.7", "unit": "%"}, {"measurement": "RANKL-induced mRNA expression level of c-Src", "setting": "[1]; RANKL 10 ng/ml + KMUP-1 5 μM", "value": "95.8 ± 2.8", "unit": "% ^"}, {"measurement": "RANKL-induced mRNA expression level of c-Src", "setting": "[1]; RANKL 10 ng/ml + KMUP-1 7.5 μM", "value": "91.5 ± 4.5", "unit": "% ^"}, {"measurement": "RANKL-induced mRNA expression level of c-Src", "setting": "[1]; RANKL 10 ng/ml + KMUP-1 10 μM", "value": "98.6 ± 6.2", "unit": "% ^"}, {"measurement": "expression of NFATc1 induced by RANKL", "setting": "[2]", "value": "can efficiently inhibit the expression of NFATc1 induced by RANKL"}, {"measurement": "RANKL-induced transfer of HMGB1 to extracellular space from cell nucleus", "setting": "[3]", "value": "can inhibit that RANKL induces HMGB1 to transfer to extracellular space from a cell nuclear"}, {"measurement": "amount of anti-inflammatory cytokine IL-10", "setting": "[4]", "value": "can raise the amount of anti-inflammatory cytokines, IL-10"}]}
